Results published in the SangsterLogP compilation.

Assay: method code SF-AS, from Rouot, B.; Leclerc, G.; Wermuth, C.; Miesch, F.; Schwartz, J. (1977). Structure-activity relations and problems related to the mechanism of action of clonidine.Journal de Pharmacologie, 8(1)95-106.

**Q.** With c1ccc(NC2=NCCN2)cc1 as the compound, how does the logP read?
**A.** The logP was 1.01.

**Q.** With Fc1cccc(F)c1N=C1NCCN1 as the compound, how does the logP read?
**A.** Its logP is 1.06.

**Q.** With Brc1ccc(NC2=NCCN2)cc1 as the compound, how does the logP read?
**A.** Its logP is 1.75.

**Q.** Which logP does the source give for COc1cc(OC)c(NC2=NCCN2)cc1Cl here?
**A.** The logP was 1.38.

**Q.** Which logP does the source give for CC(C)c1cccc(C(C)C)c1NC1=NCCN1 here?
**A.** Its logP is 3.04.

**Q.** Which logP does the source give for Cc1cc(Cl)ccc1NC1=NCCN1 here?
**A.** Its logP is 1.77.

**Q.** With COc1ccc(OC)c(NC2=NCCN2)c1 as the compound, how does the logP read?
**A.** Its logP is 0.97.

**Q.** For Cc1cccc(Cl)c1NC1=NCCN1, which logP is on record?
**A.** Its logP is 1.41.

**Q.** With Oc1cc(Cl)c(NC2=NCCN2)c(Cl)c1 as the compound, how does the logP read?
**A.** Its logP is 1.52.

**Q.** With Clc1ccc(NC2=NCCN2)c(Cl)c1 as the compound, how does the logP read?
**A.** The logP was 1.96.

**Q.** Which logP does the source give for Cc1ccc(NC2=NCCN2)c(Cl)c1 here?
**A.** Its logP is 1.87.

**Q.** With COc1cc(C)ccc1NC1=NCCN1 as the compound, how does the logP read?
**A.** The logP was 1.64.

**Q.** With FC(F)(F)c1ccccc1NC1=NCCN1 as the compound, how does the logP read?
**A.** Its logP is 1.42.

**Q.** For Brc1cccc(Br)c1NC1=NCCN1, which logP is on record?
**A.** Its logP is 1.73.

**Q.** With Cc1ccc(Cl)cc1NC1=NCCN1 as the compound, how does the logP read?
**A.** The logP was 1.8.

**Q.** For Cc1cccc(C)c1NC1=NCCN1, which logP is on record?
**A.** The logP was 1.45.
